Test results taken from ChEMBL document CHEMBL3044736, “Synthesis, characterization, solvatochromic properties, and antimicrobial evaluation of 5-acetyl-2-thioxo-dihydro-pyrimidine-4,6-dione-based chalcones” (2013).
In brackets after ≈: the same amount, converted by molar mass.

Tests used:
Assay type in all cases: functional
Klebsiella pneumoniae [1] = assay: Antimicrobial activity against Klebsiella pneumoniae MTCC 109 by agar cup diffusion method
Escherichia coli [2] = assay: Antimicrobial activity against Escherichia coli MTCC 443 by agar cup diffusion method
Staphylococcus aureus [3] = assay: Antimicrobial activity against Staphylococcus aureus MTCC 96 by agar cup diffusion method
Streptococcus pyogenes [4] = assay: Antimicrobial activity against Streptococcus pyogenes MTCC 442 by agar cup diffusion method
Penicillium [5] = assay: Antimicrobial activity against Penicillium wild strain assessed as diameter of growth inhibition zone at 250 ug/ml after 48-96 hr by agar cup diffusion method; conditions: read-out: DIZ
Penicillium [6] = assay: Antimicrobial activity against Penicillium wild strain assessed as diameter of growth inhibition zone at 100 ug/ml after 48-96 hr by agar cup diffusion method; conditions: read-out: DIZ
Trichophyton rubrum [7] = assay: Antimicrobial activity against Trichophyton rubrum MTCC 296 assessed as diameter of growth inhibition zone at 100 ug/ml after 48-96 hr by agar cup diffusion method; conditions: read-out: DIZ
Aspergillus clavatus [8] = assay: Antimicrobial activity against Aspergillus clavatus MTCC 1323 assessed as diameter of growth inhibition zone at 100 ug/ml after 48-96 hr by agar cup diffusion method; conditions: read-out: DIZ
Candida albicans [9] = assay: Antimicrobial activity against Candida albicans MTCC 227 assessed as diameter of growth inhibition zone at 100 ug/ml after 48-96 hr by agar cup diffusion method; conditions: read-out: DIZ
Penicillium [10] = assay: Antimicrobial activity against Penicillium wild strain assessed as diameter of growth inhibition zone at 50 ug/ml after 48-96 hr by agar cup diffusion method; conditions: read-out: DIZ
Trichophyton rubrum [11] = assay: Antimicrobial activity against Trichophyton rubrum MTCC 296 assessed as diameter of growth inhibition zone at 50 ug/ml after 48-96 hr by agar cup diffusion method; conditions: read-out: DIZ
Aspergillus clavatus [12] = assay: Antimicrobial activity against Aspergillus clavatus MTCC 1323 assessed as diameter of growth inhibition zone at 50 ug/ml after 48-96 hr by agar cup diffusion method; conditions: read-out: DIZ
Candida albicans [13] = assay: Antimicrobial activity against Candida albicans MTCC 227 assessed as diameter of growth inhibition zone at 50 ug/ml after 48-96 hr by agar cup diffusion method; conditions: read-out: DIZ
Penicillium [14] = assay: Antimicrobial activity against Penicillium wild strain assessed as diameter of growth inhibition zone at 25 ug/ml after 48-96 hr by agar cup diffusion method; conditions: read-out: DIZ
Trichophyton rubrum [15] = assay: Antimicrobial activity against Trichophyton rubrum MTCC 296 assessed as diameter of growth inhibition zone at 25 ug/ml after 48-96 hr by agar cup diffusion method; conditions: read-out: DIZ
Aspergillus clavatus [16] = assay: Antimicrobial activity against Aspergillus clavatus MTCC 1323 assessed as diameter of growth inhibition zone at 25 ug/ml after 48-96 hr by agar cup diffusion method; conditions: read-out: DIZ
Candida albicans [17] = assay: Antimicrobial activity against Candida albicans MTCC 227 assessed as diameter of growth inhibition zone at 25 ug/ml after 48-96 hr by agar cup diffusion method; conditions: read-out: DIZ
Penicillium [18] = assay: Antimicrobial activity against Penicillium wild strain by agar cup diffusion method
Aspergillus clavatus [19] = assay: Antimicrobial activity against Aspergillus clavatus MTCC 1323 by agar cup diffusion method
Pseudomonas aeruginosa [20] = assay: Antimicrobial activity against Pseudomonas aeruginosa MTCC 1688 assessed as diameter of growth inhibition zone at 25 ug/ml after 18-24 hr by agar cup diffusion method; conditions: read-out: DIZ
Escherichia coli [21] = assay: Antimicrobial activity against Escherichia coli MTCC 443 assessed as diameter of growth inhibition zone at 25 ug/ml after 18-24 hr by agar cup diffusion method; conditions: read-out: DIZ
Staphylococcus aureus [22] = assay: Antimicrobial activity against Staphylococcus aureus MTCC 96 assessed as diameter of growth inhibition zone at 25 ug/ml after 18-24 hr by agar cup diffusion method; conditions: read-out: DIZ
Streptococcus pyogenes [23] = assay: Antimicrobial activity against Streptococcus pyogenes MTCC 442 assessed as diameter of growth inhibition zone at 25 ug/ml after 18-24 hr by agar cup diffusion method; conditions: read-out: DIZ
Pseudomonas aeruginosa [24] = assay: Antimicrobial activity against Pseudomonas aeruginosa MTCC 1688 by agar cup diffusion method
Trichophyton rubrum [25] = assay: Antimicrobial activity against Trichophyton rubrum MTCC 296 by agar cup diffusion method
Candida albicans [26] = assay: Antimicrobial activity against Candida albicans MTCC 227 by agar cup diffusion method
Klebsiella pneumoniae [27] = assay: Antimicrobial activity against Klebsiella pneumoniae MTCC 109 assessed as diameter of growth inhibition zone at 250 ug/ml after 18-24 hr by agar cup diffusion method; conditions: read-out: DIZ
Pseudomonas aeruginosa [28] = assay: Antimicrobial activity against Pseudomonas aeruginosa MTCC 1688 assessed as diameter of growth inhibition zone at 250 ug/ml after 18-24 hr by agar cup diffusion method; conditions: read-out: DIZ
Escherichia coli [29] = assay: Antimicrobial activity against Escherichia coli MTCC 443 assessed as diameter of growth inhibition zone at 250 ug/ml after 18-24 hr by agar cup diffusion method; conditions: read-out: DIZ
Staphylococcus aureus [30] = assay: Antimicrobial activity against Staphylococcus aureus MTCC 96 assessed as diameter of growth inhibition zone at 250 ug/ml after 18-24 hr by agar cup diffusion method; conditions: read-out: DIZ
Streptococcus pyogenes [31] = assay: Antimicrobial activity against Streptococcus pyogenes MTCC 442 assessed as diameter of growth inhibition zone at 250 ug/ml after 18-24 hr by agar cup diffusion method; conditions: read-out: DIZ
Klebsiella pneumoniae [32] = assay: Antimicrobial activity against Klebsiella pneumoniae MTCC 109 assessed as diameter of growth inhibition zone at 100 ug/ml after 18-24 hr by agar cup diffusion method; conditions: read-out: DIZ
Pseudomonas aeruginosa [33] = assay: Antimicrobial activity against Pseudomonas aeruginosa MTCC 1688 assessed as diameter of growth inhibition zone at 100 ug/ml after 18-24 hr by agar cup diffusion method; conditions: read-out: DIZ
Escherichia coli [34] = assay: Antimicrobial activity against Escherichia coli MTCC 443 assessed as diameter of growth inhibition zone at 100 ug/ml after 18-24 hr by agar cup diffusion method; conditions: read-out: DIZ
Staphylococcus aureus [35] = assay: Antimicrobial activity against Staphylococcus aureus MTCC 96 assessed as diameter of growth inhibition zone at 100 ug/ml after 18-24 hr by agar cup diffusion method; conditions: read-out: DIZ
Streptococcus pyogenes [36] = assay: Antimicrobial activity against Streptococcus pyogenes MTCC 442 assessed as diameter of growth inhibition zone at 100 ug/ml after 18-24 hr by agar cup diffusion method; conditions: read-out: DIZ
Klebsiella pneumoniae [37] = assay: Antimicrobial activity against Klebsiella pneumoniae MTCC 109 assessed as diameter of growth inhibition zone at 50 ug/ml after 18-24 hr by agar cup diffusion method; conditions: read-out: DIZ
Pseudomonas aeruginosa [38] = assay: Antimicrobial activity against Pseudomonas aeruginosa MTCC 1688 assessed as diameter of growth inhibition zone at 50 ug/ml after 18-24 hr by agar cup diffusion method; conditions: read-out: DIZ
Escherichia coli [39] = assay: Antimicrobial activity against Escherichia coli MTCC 443 assessed as diameter of growth inhibition zone at 50 ug/ml after 18-24 hr by agar cup diffusion method; conditions: read-out: DIZ
Staphylococcus aureus [40] = assay: Antimicrobial activity against Staphylococcus aureus MTCC 96 assessed as diameter of growth inhibition zone at 50 ug/ml after 18-24 hr by agar cup diffusion method; conditions: read-out: DIZ
Streptococcus pyogenes [41] = assay: Antimicrobial activity against Streptococcus pyogenes MTCC 442 assessed as diameter of growth inhibition zone at 50 ug/ml after 18-24 hr by agar cup diffusion method; conditions: read-out: DIZ
Klebsiella pneumoniae [42] = assay: Antimicrobial activity against Klebsiella pneumoniae MTCC 109 assessed as diameter of growth inhibition zone at 25 ug/ml after 18-24 hr by agar cup diffusion method; conditions: read-out: DIZ
Trichophyton rubrum [43] = assay: Antimicrobial activity against Trichophyton rubrum MTCC 296 assessed as diameter of growth inhibition zone at 250 ug/ml after 48-96 hr by agar cup diffusion method; conditions: read-out: DIZ
Aspergillus clavatus [44] = assay: Antimicrobial activity against Aspergillus clavatus MTCC 1323 assessed as diameter of growth inhibition zone at 250 ug/ml after 48-96 hr by agar cup diffusion method; conditions: read-out: DIZ
Candida albicans [45] = assay: Antimicrobial activity against Candida albicans MTCC 227 assessed as diameter of growth inhibition zone at 250 ug/ml after 48-96 hr by agar cup diffusion method; conditions: read-out: DIZ

SMILES: O=C(O)c1cn(C2CC2)c2cc(N3CCNCC3)c(F)cc2c1=O [CIPROFLOXACIN]
- MIC (Klebsiella pneumoniae [1]): 25 µg/mL (≈ 75.4 µM)
- MIC (Escherichia coli [2]): 25 µg/mL (≈ 75.4 µM)
- MIC (Staphylococcus aureus [3]): 100 µg/mL (≈ 302 µM)
- MIC (Streptococcus pyogenes [4]): 50 µg/mL (≈ 151 µM)

SMILES: O=C(/C=C/c1ccc(Cl)cc1)C1C(=O)NC(=S)NC1=O
- zone of inhibition at 250 µg/mL (Penicillium [5]): 25 mm
- zone of inhibition at 100 µg/mL (Penicillium [6]): 23 mm
- zone of inhibition at 100 µg/mL (Trichophyton rubrum [7]): 21 mm
- zone of inhibition at 100 µg/mL (Aspergillus clavatus [8]): 22 mm
- zone of inhibition at 100 µg/mL (Candida albicans [9]): 22 mm
- zone of inhibition at 50 µg/mL (Penicillium [10]): 22 mm
- zone of inhibition at 50 µg/mL (Trichophyton rubrum [11]): 20 mm
- zone of inhibition at 50 µg/mL (Aspergillus clavatus [12]): 20 mm
- zone of inhibition at 50 µg/mL (Candida albicans [13]): 21 mm
- zone of inhibition at 25 µg/mL (Penicillium [14]): 19 mm
- zone of inhibition at 25 µg/mL (Trichophyton rubrum [15]): 18 mm
- zone of inhibition at 25 µg/mL (Aspergillus clavatus [16]): 18 mm
- zone of inhibition at 25 µg/mL (Candida albicans [17]): 20 mm
- MFC (Penicillium [18]): > 1000 µg/mL
- MIC (Penicillium [18]): > 1000 µg/mL
- MFC (Aspergillus clavatus [19]): 500 µg/mL (≈ 1620 µM)
- MIC (Aspergillus clavatus [19]): 500 µg/mL (≈ 1620 µM)
- zone of inhibition at 25 µg/mL (Pseudomonas aeruginosa [20]): 11 mm
- zone of inhibition at 25 µg/mL (Escherichia coli [21]): 11 mm
- zone of inhibition at 25 µg/mL (Staphylococcus aureus [22]): 11 mm
- zone of inhibition at 25 µg/mL (Streptococcus pyogenes [23]): 11 mm
- MBC (Klebsiella pneumoniae [1]): 125 µg/mL (≈ 405 µM)
- MIC (Klebsiella pneumoniae [1]): 100 µg/mL (≈ 324 µM)
- MBC (Escherichia coli [2]): 125 µg/mL (≈ 405 µM)
- MIC (Escherichia coli [2]): 125 µg/mL (≈ 405 µM)
- MBC (Pseudomonas aeruginosa [24]): 250 µg/mL (≈ 810 µM)
- MIC (Pseudomonas aeruginosa [24]): 200 µg/mL (≈ 648 µM)
- MBC (Staphylococcus aureus [3]): 100 µg/mL (≈ 324 µM)
- MIC (Staphylococcus aureus [3]): 100 µg/mL (≈ 324 µM)
- MBC (Streptococcus pyogenes [4]): 125 µg/mL (≈ 405 µM)
- MIC (Streptococcus pyogenes [4]): 100 µg/mL (≈ 324 µM)
- MFC (Trichophyton rubrum [25]): > 1000 µg/mL
- MIC (Trichophyton rubrum [25]): > 1000 µg/mL
- MFC (Candida albicans [26]): 500 µg/mL (≈ 1620 µM)
- MIC (Candida albicans [26]): 500 µg/mL (≈ 1620 µM)
- zone of inhibition at 250 µg/mL (Klebsiella pneumoniae [27]): 20 mm
- zone of inhibition at 250 µg/mL (Pseudomonas aeruginosa [28]): 15 mm
- zone of inhibition at 250 µg/mL (Escherichia coli [29]): 19 mm
- zone of inhibition at 250 µg/mL (Staphylococcus aureus [30]): 15 mm
- zone of inhibition at 250 µg/mL (Streptococcus pyogenes [31]): 19 mm
- zone of inhibition at 100 µg/mL (Klebsiella pneumoniae [32]): 17 mm
- zone of inhibition at 100 µg/mL (Pseudomonas aeruginosa [33]): 13 mm
- zone of inhibition at 100 µg/mL (Escherichia coli [34]): 17 mm
- zone of inhibition at 100 µg/mL (Staphylococcus aureus [35]): 13 mm
- zone of inhibition at 100 µg/mL (Streptococcus pyogenes [36]): 17 mm
- zone of inhibition at 50 µg/mL (Klebsiella pneumoniae [37]): 15 mm
- zone of inhibition at 50 µg/mL (Pseudomonas aeruginosa [38]): 12 mm
- zone of inhibition at 50 µg/mL (Escherichia coli [39]): 14 mm
- zone of inhibition at 50 µg/mL (Staphylococcus aureus [40]): 12 mm
- zone of inhibition at 50 µg/mL (Streptococcus pyogenes [41]): 14 mm
- zone of inhibition at 25 µg/mL (Klebsiella pneumoniae [42]): 13 mm
- zone of inhibition at 250 µg/mL (Trichophyton rubrum [43]): 22 mm
- zone of inhibition at 250 µg/mL (Aspergillus clavatus [44]): 22 mm
- zone of inhibition at 250 µg/mL (Candida albicans [45]): 23 mm
